# Experimental data reported in ChEMBL document CHEMBL4152302, “Benzo[d]thiazole-2-carbanilides as new anti-TB chemotypes: Design, synthesis, biological evaluation, and structure-activity relationship” (Eur J Med Chem, 2018).
# What was measured:
# [1] = tested on: Mycobacterium tuberculosis; experiment: Antimycobacterial activity against Mycobacterium tuberculosis H37Rv ATCC 27294 after 28 days by Two-fold serial dilution assay; type: functional; details: H37Rv ATCC 27294, 672 h
# [2] = Cytotoxicity against mouse RAW264.7 cells assessed as inhibition of cell viability at 50 ug/ml after 72 hrs by MTT assay relative to control; type: cell-based; details: read-out: INH
# [3] = Selectivity index, ratio of cytotoxic concentration for mouse RAW264.7 cells to MIC99 for Mycobacterium tuberculosis H37Rv ATCC 27294; type: toxicity; details: read-out: Selectivity Index
SMILES,MIC [1],"cytotoxicity at 72 h, 50 ug/ml [2] [%]",selectivity ratio [3]
O=C(Nc1ccccc1N1CCOCC1)c1nc2cc(Cl)ccc2s1,66.9 µM,–,–
COc1cc(NC(=O)c2nc3cc(C(F)(F)F)ccc3s2)cc(OC)c1OC,1.89 µM,23.4,64
COc1ccc(NC(=O)c2nc3cc(Cl)ccc3s2)cc1,78.4 µM,–,–
Cc1ccccc1NC(=O)c1nc2cc(Cl)ccc2s1,82.6 µM,–,–
O=C(Nc1cccc([N+](=O)[O-])c1)c1nc2ccccc2s1,2.61 µM,38.4,64
COc1cccc(NC(=O)c2nc3ccccc3s2)c1,> 87.9 µM,–,–
O=C(Nc1ccccc1N1CCOCC1)c1nc2ccccc2s1,36.8 µM,–,–
O=C(Nc1ccc(Br)cc1)c1nc2cc(C(F)(F)F)ccc2s1,62.3 µM,–,–
Cc1cc(C)c(NC(=O)c2nc3ccccc3s2)c(C)c1,5.26 µM,17.9,–
O=C(Nc1cccc(F)c1)c1nc2cc(Cl)ccc2s1,5.09 µM,29.1,–
O=C(Nc1ccc(Cl)cc1)c1nc2ccccc2s1,> 86.6 µM,–,–
O=C(Nc1cccc(F)c1)c1nc2cc(C(F)(F)F)ccc2s1,36.7 µM,–,–
COc1ccc(NC(=O)c2nc3ccccc3s2)cc1,22 µM,24.6,–
O=C(Nc1ccc(Br)cc1)c1nc2ccccc2s1,> 75 µM,–,–
O=C(Nc1cccc(Cl)c1)c1nc2cc(C(F)(F)F)ccc2s1,35 µM,–,–
O=C(Nc1ccccc1C(F)(F)F)c1nc2ccccc2s1,38.8 µM,–,–
O=C(Nc1ccccc1F)c1nc2cc(C(F)(F)F)ccc2s1,73.5 µM,–,–
O=C(Nc1ccc(Cl)cc1)c1nc2cc(Cl)ccc2s1,2.35 µM,28.9,64
CCOC(=O)c1nc2cc(Cl)ccc2s1,12.9 µM,–,–
O=C(Nc1ccccc1C(F)(F)F)c1nc2cc(Cl)ccc2s1,70.1 µM,–,–
COc1ccc(NC(=O)c2nc3cc(C(F)(F)F)ccc3s2)cc1,2.21 µM,35.7,64
CO[C@H]1/C=C/O[C@@]2(C)Oc3c(C)c(O)c4c(O)c(c(/C=N/N5CCN(C)CC5)c(O)c4c3C2=O)NC(=O)/C(C)=C\C=C\[C@H](C)[C@H](O)[C@@H](C)[C@@H](O)[C@@H](C)[C@H](OC(C)=O)[C@@H]1C [RIFAMPIN],0.197 µg/mL,–,–
O=C(Nc1ccc(N2CCOCC2)cc1)c1nc2cc(C(F)(F)F)ccc2s1,61.4 µM,–,–
Cc1cccc(NC(=O)c2nc3ccccc3s2)c1,> 93.2 µM,–,–
NC(=O)c1cnccn1 [PYRAZINAMIDE],6.25 µg/mL,–,–
O=C(Nc1ccc([N+](=O)[O-])cc1)c1nc2ccccc2s1,20.9 µM,35.6,–
O=C(Nc1ccccc1N1CCOCC1)c1nc2cc(C(F)(F)F)ccc2s1,30.7 µM,–,–

SMILES,MIC [1],"cytotoxicity at 72 h, 50 ug/ml [2] [%]",selectivity ratio [3]
Cc1ccc(NC(=O)c2nc3ccccc3s2)cc1,46.6 µM,–,–
Cc1cccc(NC(=O)c2nc3cc(C(F)(F)F)ccc3s2)c1,4.64 µM,34.6,–
O=C(Nc1ccc(C(F)(F)F)cc1)c1nc2cc(C(F)(F)F)ccc2s1,64 µM,–,–
COc1cccc(NC(=O)c2nc3cc(C(F)(F)F)ccc3s2)c1,4.43 µM,26.8,–
O=C(Nc1ccc(C(F)(F)F)cc1)c1nc2ccccc2s1,2.42 µM,13.6,64
O=C(Nc1cccc(Cl)c1)c1nc2cc(Cl)ccc2s1,77.3 µM,–,–
Cc1ccc(NC(=O)c2nc3cc(C(F)(F)F)ccc3s2)cc1,4.64 µM,47.8,–
O=C(Nc1cccc(Cl)c1)c1nc2ccccc2s1,2.7 µM,26.8,64
O=C(Nc1ccccc1F)c1nc2cc(Cl)ccc2s1,5.09 µM,18.1,–
O=C(Nc1cccc(C(F)(F)F)c1)c1nc2cc(Cl)ccc2s1,70.1 µM,–,–
O=C(Nc1ccc(F)cc1)c1nc2cc(C(F)(F)F)ccc2s1,73.5 µM,–,–
NNC(=O)c1ccncc1 [ISONIAZID],0.098 µg/mL,–,–
O=C(Nc1ccccc1F)c1nc2ccccc2s1,11.5 µM,24.9,–
O=C(Nc1cccc(C(F)(F)F)c1)c1nc2cc(C(F)(F)F)ccc2s1,16 µM,19.8,–
O=C(Nc1cccc([N+](=O)[O-])c1)c1nc2cc(Cl)ccc2s1,37.5 µM,–,–
O=C(Nc1ccc(Cl)cc1)c1nc2cc(C(F)(F)F)ccc2s1,2.19 µM,36.7,64
O=C(Nc1ccc(F)cc1)c1nc2ccccc2s1,> 91.8 µM,–,–
O=C(Nc1ccc(F)cc1)c1nc2cc(Cl)ccc2s1,5.09 µM,34.6,–
O=C(Nc1ccc([N+](=O)[O-])cc1)c1nc2cc(Cl)ccc2s1,74.9 µM,–,–
COc1cc(NC(=O)c2nc3ccccc3s2)cc(OC)c1OC,2.26 µM,30.1,64
O=C(Nc1cccc(C(F)(F)F)c1)c1nc2ccccc2s1,38.8 µM,–,–
O=C(Nc1cccc(F)c1)c1nc2ccccc2s1,22.9 µM,20.9,–
Cc1cc(C)c(NC(=O)c2nc3cc(Cl)ccc3s2)c(C)c1,75.6 µM,–,–
CCOC(=O)c1nc2ccccc2s1,121 µM,–,–
O=C(Nc1ccccc1Cl)c1nc2ccccc2s1,5.4 µM,24,–
O=C(Nc1ccc(N2CCOCC2)cc1)c1nc2ccccc2s1,4.6 µM,18.9,–
O=C(Nc1ccccc1)c1nc2cc(Cl)ccc2s1,86.6 µM,–,–

SMILES,MIC [1],"cytotoxicity at 72 h, 50 ug/ml [2] [%]",selectivity ratio [3]
Cc1ccccc1NC(=O)c1nc2ccccc2s1,> 93.2 µM,–,–
O=C(Nc1cccc([N+](=O)[O-])c1)c1nc2cc(C(F)(F)F)ccc2s1,68.1 µM,–,–
O=C(Nc1ccccc1)c1nc2cc(C(F)(F)F)ccc2s1,77.6 µM,–,–
O=C(Nc1ccccc1C(F)(F)F)c1nc2cc(C(F)(F)F)ccc2s1,2 µM,27.8,64
O=C(Nc1ccc(C(F)(F)F)cc1)c1nc2cc(Cl)ccc2s1,4.37 µM,41,–
COc1cc(NC(=O)c2nc3cc(Cl)ccc3s2)cc(OC)c1OC,66 µM,–,–
O=C(Nc1ccccc1Cl)c1nc2cc(Cl)ccc2s1,77.3 µM,–,–
Cc1cccc(NC(=O)c2nc3cc(Cl)ccc3s2)c1,20.6 µM,52.2,–
O=C(Nc1ccc(N2CCOCC2)cc1)c1nc2cc(Cl)ccc2s1,2.09 µM,42.3,64
COc1ccccc1NC(=O)c1nc2cc(C(F)(F)F)ccc2s1,4.43 µM,43.2,–
CC[C@@H](CO)NCCN[C@@H](CC)CO [ETHAMBUTOL],1.56 µg/mL,–,–
O=C(Nc1ccc(N2CCOCC2)c(F)c1)c1nc2cc(C(F)(F)F)ccc2s1,29.4 µM,–,–
O=C(Nc1ccc([N+](=O)[O-])cc1)c1nc2cc(C(F)(F)F)ccc2s1,2.12 µM,32.6,64
COc1ccccc1NC(=O)c1nc2cc(Cl)ccc2s1,78.4 µM,–,–
O=C(Nc1ccc(N2CCOCC2)c(F)c1)c1nc2ccccc2s1,> 70 µM,–,–
Cc1cc(C)c(NC(=O)c2nc3cc(C(F)(F)F)ccc3s2)c(C)c1,68.6 µM,–,–
O=C(Nc1ccc(N2CCOCC2)c(F)c1)c1nc2cc(Cl)ccc2s1,31.9 µM,–,–
Cc1ccccc1NC(=O)c1nc2cc(C(F)(F)F)ccc2s1,74.3 µM,–,–
Cc1ccc(NC(=O)c2nc3cc(Cl)ccc3s2)cc1,5.15 µM,22.6,–
O=C(Nc1ccccc1Cl)c1nc2cc(C(F)(F)F)ccc2s1,70.1 µM,–,–
COc1ccccc1NC(=O)c1nc2ccccc2s1,11 µM,16.7,–
CCOC(=O)c1nc2cc(C(F)(F)F)ccc2s1,22.7 µM,–,–
COc1cccc(NC(=O)c2nc3cc(Cl)ccc3s2)c1,2.45 µM,18.7,64
O=C(Nc1ccc(Br)cc1)c1nc2cc(Cl)ccc2s1,4.24 µM,53.1,–
O=C(Nc1ccccc1)c1nc2ccccc2s1,98.3 µM,–,–
